Reference: patent US20260035338A1, “AMINO LIPID COMPOUND AND LIPID NANOPARTICLE FOR DELIVERING BIOACTIVE INGREDIENT” (SHENZHEN SHENXIN BIOTECHNOLOGY CO., LTD., priority 2022, published 2026)

System: BALB/c mice
Test: In vivo delivery of Fluc mRNA-encapsulating LNP formulations, luciferase signal by In Vivo Imaging System (IVIS)
Conditions: tail vein injection (IV) 70 μL, female BALB/c mice, 6 hours after injection; for Average number of photons (Total in-vivo flux): LNP formulation encapsulating Fluc mRNA (Lipid:DSPC:CHO-HP:M-DMG-2000 48:10:40.5:1.5); for Average number of photons (Liver) / Average number of photons (Spleen): LNP formulation encapsulating Fluc mRNA
Protocol: Animal preparation: Female BALB/c mice of 6-8 weeks old were selected and raised in an SPF grade breeding room. Animal testing was conducted in strict accordance with the guidelines of national health institutions and animal ethics requirements.
In vivo Delivery: prior to injection of the test LNP formulation, the LNP formulation was gently and repeatedly inverted to thoroughly mix the sample of the formulation. A corresponding amount of the LNP formulation was aspirated with a 1 ml insulin syringe, and the LNP formulation was injected by tail vein injection (IV), with 3 mice in duplicate per formulation. Each mouse was injected with 70 μL of the corresponding LNP formulation encapsulating the luciferase mRNA (Fluc mRNA) prepared in Experimental Example 1.
6 hours after injection of LNP formulations, mice were injected with 200 μL D-Luciferin luciferase developing substrate (Catalog No. 122799; Manufacturer: Perkin Elmer). After the substrate was injected, the mice were anesthetized with isoflurane inhalation, and the injection time of luciferase developing substrate was recorded.
The encapsulation efficiency of the lipid nanoparticle encapsulating luciferase mRNA (Fluc mRNA) with a representative amino lipid compound and the fluorescence expression intensity induced by the same are shown in Table 4, with the LNP formulation containing SM-102, 1001 or ALC-0315 as a control LNP formulation. The preparation method of the control LNP formulation was basically the same as that of the LNP formulations in Experimental Example 1, with the difference lying in that the amino lipid compounds of the present disclosure were replaced with SM-102, 1001 or ALC-0315 in the preparation of the control LNP formulation.

Row | SMILES | Average number of photons (Total in-vivo flux) | Average number of photons (Liver) | Average number of photons (Spleen)
1 | CCCCCCOC(CCCOC(=O)CCCCCCCCC(CCCCCCCCC(=O)OCCCC(OCCCCCC)OCCCCCC)OC(=O)OCC1CCCN(C)C1)OCCCCCC (stereo not drawn) [compound 416] | 2.16E+08 | 5.13E+07 | 3.99E+06
2 | CCCCCCOC(CCCOC(=O)CCCCCCCCC(CCCCCCCCC(=O)OCCCC(OCCCCCC)OCCCCCC)NC(=O)OCCCN(CC)CC)OCCCCCC [compound 393] | 2.80E+08 | 5.44E+07 | 1.00E+07
3 | CCCCCCCC#CCOC(CCCOC(=O)CCCCCCCCC(CCCCCCCCC(=O)OCCCCCCCCCCOC)OC(=O)OCCCN(CC)CC)OCC#CCCCCCCC (stereo not drawn) [compound 439] | 5.87E+07 | 1.25E+07 | 1.96E+06
4 | CCCCC/C=C\C/C=C\CCCCCCCC(=O)OCC(COCCCCC(OCCCCCCCC)OCCCCCCCC)COC(=O)OCCCN(CC)CC (stereo not drawn) [compound 1248] | 8.20E+07 | 1.79E+07 | 3.48E+06
5 | CCCCCCOC(CCCOC(=O)OCCCCCCCCCC(CCCCCCCCCOC(=O)OCC(OCCCCCC)OCCCCCC)OC(=O)OCCCN(CC)CC)OCCCCCC (stereo not drawn) [compound 457] | 1.43E+07 | 1.55E+06 | 2.70E+06
6 | CCCCCCCCOC(CCCOC(=O)CCCCCCCCC(CCCCCCCCCNC(=O)OCC(OCCCCCC)OCCCCCC)OC(=O)OCCCN(CC)CC)OCCCCCCCC (stereo not drawn) [compound 458] | 1.29E+08 | 2.69E+07 | 2.60E+06
7 | CCCCCCCOC(CCCOC(=O)CCCCCCCCC(CCCCCCCCC(=O)OCCCC(OCCCCCCC)OCCCCCCC)OC(=O)OCCCN(C)C)OCCCCCCC [compound 490] | 2.65E+07 | 3.68E+06 | 5.06E+05
8 | CCCCCCCCCOC(CCCOC(=O)CCCCCCCCC(CCCCCCCCC(=O)OCCCC(OCCCCCC)OCCCCCC)OC(=O)OCCCN(CC)CC)OCCCCCCCCC (stereo not drawn) [compound 867] | 2.15E+07 | 4.12E+06 | 1.36E+05
9 | CCCCCCOC(CCCOC(=O)CCCCCCCCC(CCCCCCCCC(=O)OCCCC(OCCCCCC)OCCCCCC)N(CCCN(C)C)C(C)=O)OCCCCCC [compound 451] | 2.86E+07 | 4.63E+06 | 1.74E+07
10 | CCCCCCCCC(=O)OCCCCCCCCOC(=O)CCCCCCCCC(CCCCCCCCC(=O)OCCCC(OCCCCCC)OCCCCCC)OC(=O)OCCCN(CC)CC (stereo not drawn) [compound 433] | 2.56E+07 | 3.83E+06 | 2.44E+05
11 | CCCCC/C=C\C/C=C\CCCCCCCC(=O)OCC(COC(=O)OCCCC(OCCCCCCCC)OCCCCCCCC)COC(=O)OCCCN(CC)CC (stereo not drawn) [compound 1246] | 4.92E+07 | 6.85E+06 | 3.83E+06
12 | CCCCCCCOC(CCCOC(=O)CCCCCCCCC(CCCCCCCCC(=O)OCCCC(OCCCCCCC)OCCCCCCC)OC(=O)N(CCCC(=O)OCCCCC)CCCN(C)C)OCCCCCCC [compound 381] | 2.46E+08 | 4.40E+07 | 1.96E+07
13 | CCCCCCOC(CCCOC(=O)CCCCCCC(CCCCCCC(=O)OCCCC(OCCCCCC)OCCCCCC)OC(=O)OCCCN(C)C)OCCCCCC [compound 2040] | 1.53E+08 | 2.97E+07 | 1.11E+07
14 | CCCCCOC(CCCOC(=O)CCCCCCCCC(CCCCCCCCC(=O)OCCCC(OCCCCC)OCCCCC)OC(=O)OCCCN(CC)CC)OCCCCC [compound 387] | 6.66E+07 | 7.15E+06 | 6.77E+05
15 | CCCCCCOC(CCCOC(=O)CCCCCCC(CCCCCCC(=O)OCCCC(OCCCCCC)OCCCCCC)OC(=O)OCCCN(CC)CC)OCCCCCC [compound 2044] | 4.94E+07 | 6.90E+06 | 1.18E+06
16 | CCCCCCCCCCCOC(=O)CCCCCN(CCO)CCCCCCCC(=O)OC(CCCCCCCC)CCCCCCCC [SM-102, reference compound] | 3.00E+08 | 6.19E+07 | 6.42E+06
17 | CCCCCCOC(CCC(=O)OCC(COC(=O)CCC(OCCCCCC)OCCCCCC)COC(=O)OCCCN(C)C)OCCCCCC [compound 2021] | 4.49E+06 | 1.19E+06 | 1.04E+06
18 | CCCCCCCCCOC(CCCOC(=O)CCCCCCCCC(CCCCCCCCC(=O)OCCCC(OCCCCCC)OCCCCCC)OC(=O)OCCCN(C)C)OCCCCCCCCC (stereo not drawn) [compound 856] | 3.40E+07 | 9.34E+06 | 3.58E+05
19 | CCCCCCOC(CCCOC(=O)CCCCCCCCC(CCCCCCCCC(=O)OCCCC(OCCCCCC)OCCCCCC)OC(=O)N(CCCC(=O)OCCCCC)CCCN(C)C)OCCCCCC [compound 380] | 4.05E+08 | 7.25E+07 | 6.79E+07
20 | CCCCCCOC(CCOC(=O)CCCCCCCCC(CCCCCCCCC(=O)OCCC(OCCCCCC)OCCCCCC)OC(=O)OCCCN(C)C)OCCCCCC [compound 2035] | 1.49E+08 | 3.12E+07 | 7.61E+05
21 | CCCCCCCCCOC(CCCOC(=O)CCCCCCCCC(CCCCCCCCC(=O)OCCCC(OCCCCCCCCC)OCCCCCCCCC)OC(=O)OCCCN(C)C)OCCCCCCCCC [compound 849] | 2.67E+07 | 4.12E+06 | 1.82E+05
22 | CCCCCCCCC(CCCCCC)C(=O)OCCCCCCN(CCCCO)CCCCCCOC(=O)C(CCCCCC)CCCCCCCC (stereo not drawn) [ALC-0315, reference compound] | 6.39E+08 | 1.23E+08 | 3.45E+06
23 | CCCCCCCOC(CCCOC(=O)CCCCCCCCC(CCCCCCCCC(=O)OCCCC(OCCCCCCC)OCCCCCCC)OC(=O)OCCCN(CC)CC)OCCCCCCC [compound 383] | 6.10E+07 | 8.57E+06 | 1.53E+06
24 | CCCCCCCCOC(CCCOC(=O)CCCCCCCCC(CCCCCCCCC(=O)OCCCC(OCCCCC)OCCCCC)OC(=O)OCCCN(CC)CC)OCCCCCCCC (stereo not drawn) [compound 863] | 4.43E+07 | 7.13E+06 | 2.88E+05
25 | CCCCCCOC(CCCOC(=O)CCCCCCCCC(CCCCCCCCC(=O)OCCCC(OCCCCCC)OCCCCCC)N(CCCN(C)C)C(=O)COC)OCCCCCC [compound 450] | 4.38E+07 | 7.96E+05 | 3.18E+06
26 | CCCCCCCOC(CCCOC(=O)CCCCCCCCC(CCCCCCCCC(=O)OCCCC(OCCCCC)OCCCCC)OC(=O)OCCCN(CC)CC)OCCCCCCC (stereo not drawn) [compound 862] | 8.57E+07 | 1.53E+07 | 6.67E+05
27 | CCCCCCCOC(CCCOC(=O)CCCCCCCCC(CCCCCCCCC(=O)OCCCC(OCCCCC)OCCCCC)OC(=O)OCCCN(C)C)OCCCCCCC (stereo not drawn) [compound 851] | 1.28E+08 | 2.21E+07 | 1.93E+06
28 | CCCCCCC#CCCOC(=O)CCCCCCCOC(=O)CCCCCCCCC(CCCCCCCCC(=O)OCCCC(OCCCCCC)OCCCCCC)OC(=O)OCCCN(CC)CC (stereo not drawn) [compound 437] | 1.66E+07 | 2.66E+06 | 2.62E+06
29 | CCC/C=C\COC(CCCOC(=O)CCCCCCCCC(CCCCCCCCC(=O)OCCCC(OC/C=C\CCC)OC/C=C\CCC)OC(=O)OCCCN(CC)CC)OC/C=C\CCC [compound 392] | 8.20E+07 | 1.50E+07 | 6.65E+05
30 | CCCCCCOC(CCCCCOC(=O)CCCCCCCCC(CCCCCCCCC(=O)OCCCCCC(OCCCCCC)OCCCCCC)OC(=O)OCCCN(CC)CC)OCCCCCC [compound 389] | 2.99E+07 | 4.14E+06 | 8.58E+04
